# Experimental data as given in patent US20220160814A1, “COMPOSITIONS AND METHODS FOR PROTECTING TYPE 2 ALVEOLAR EPITHELIAL CELLS (AEC2)” (Lung Therapeutics, Inc., priority 2019, published 2022).
# Where no end group is shown, it is not given here.
# Tested on: IPF fibroblasts
# Type: cell-based
# Experimental: FIGS. 1A-B. CSP7 deactivates IPF lung fibroblasts. IPF fibroblasts were treated with control peptide, TGFβ (a positive control to stimulate collagen), or a single dose of CSP7 and assayed 24 h later using ELISA against human collagen 1α1 (FIG. 1A). A cell titer glo assay was used to label live IPF fibroblasts grown on 96 well plates (FIG. 1B).
# A cell titer glo assay (Promega, G7570) was used to label live IPF fibroblasts grown on 96 well plates. IPF fibroblasts have a senescent phenotype, and as such they release factors that contribute to aberrant wound healing. Inducing apoptosis in IPF fibroblasts may […]. Luminescence was read in a plate reader. […] Luminescence is proportional to living cell number, i.e., a decrease in luminescence correlates with cell death.
substance,measurement,value
"FTTFTVT [CSP7, FTTFTVT]",apoptosis / live cell number (luminescence),did not stimulate apoptosis
